The values below come from US9090599B2, “Heteroarylmethyl amides” (Hoffman-La Roche Inc., priority 2010, dated 2015).

In one assay the target is T1, human CB1 receptor (Homo sapiens, UniProt P21554).
T1 construct: expressed in transfected cells; host or cells: human embryonic kidney (HEK) cells, Semliki Forest Virus system, membrane preparations
Description: CB1 receptor affinity, [3H]-CP-55,940 displacement, HEK cell membranes. It counts as binding. Particulars: read-out: CB1 receptor affinity [% inhibition @ 10 μM]. In outline: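 Membranes from HEK cells transiently expressing human CB1 (Semliki Forest Virus system) incubated with [3H]-CP-55,940 with or without test compound. Bound and free ligand separated by glass-fibre filtration and bound radioactivity counted by scintillation. Compounds tested at 10 μM, values reported as % inhibition of radioligand binding.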

The next assay has as its system ABCA1 protein. Description: Detection of upregulation of ABCA1 protein in THP-1 macrophage cells (ApoA-I binding, high content imaging). In kind it is cell-based. The conditions noted are these: 24 hrs with compound, AlexaFluor 647 ApoA-I binding, read-out: ABCA1 protein increasing efficacy EC50. How it is done: The ability of compounds of the invention to increase the level of ABCA1 protein is determined in replicate cultures of THP-1 macrophage cells in 96-well microplates. Cells are plated at an initial density of 100,000 cells/well in 100 μl medium and differentiated to adherent macrophages with the addition of PMA (100 nM) for 68 hrs in 10% fetal bovine serum, 3 μl/L of b-mercaptoethanol, RPMI-1640 medium. Then, cells are incubated with RPMI-1640 medium containing 1% FCS, 25 μg/ml acetylated LDL, for 24 hours at 37°. Following incubation with acetylated LDL, cells are washed twice with 50 μl PBS and incubated with 100 μl of RPMI-1640 medium containing the compound of interest solubilized in DMSO for an additional 24 hrs. The final DMSO concentration in presence of cells is maintained at 0.5%. ApoA-I binding assay using High Content Image Analysis is initiated by replacing with fresh medium, RPMI without Phenol Red, 0.2% BSA containing AlexaFluor®647 labeled ApoA-I for 2 h/37° C./5% CO2. Then, cells are fixed with 4% Formaldehyde in PBS (15 min, RT). Following Nuclei are stained with Hoechst solution (3 μM PBS) and Cytoplasm with Cell Mask Blue (2 μg/ml PBS), 15 min, RT. Finally the stained cells are fixed with a second round of formaldehyde treatment. Fixed stained cells are washed and kept in PBS at 4° C. and can be read immediately until one month after preparation.
The Alexa Fluor 647-labeled Apolipoprotein A-I (20 nM) was prepared as follows: Human recombinant Apolipoprotein A-I (ApoA-I) was exchanged to a buffer of 0.02 M NaHCO3 at pH 8.2 on an NAP desalting column (GE Healthcare) and brought to a concentration to 40 μM (1.13 mg/ml) by adjustment with the same buffer. The ApoA-I was fluorescently labeled by incubation with Alexa Fluor carboxylic acid succimidyl ester. (Alexa Fluor 647, Invitrogen A-20006) at a 2:1 molar ratio (Alexa to ApoA-I) for 1 h under shaking at RT. The remaining unconjugated label was removed by buffer exchange to 0.02M NaHCO3 at pH 8.2.
Imaging and data collection were performed on an OPERA confocal microplate imaging reader using a 20× water immersion objective and UV360 or 405 laser to identify the cell nuclei and a 635 laser to identify the fluorescent ApoA-I. Eight fields of view are captured per well. Image capture and analysis was performed with the Acapella software. Background fluorescence detected in control wells without ApoA-I was subtracted.
Using XLfit3 program (ID Business Solutions Ltd. UK), the model 205 for Dose Response One Site is used to calculate the EC50 values. […] Preferably, the compounds of the present invention have EC50 values in a range of 0.1 μM to 3 μM.

In a further assay the target is T2, human CB2 receptor (Homo sapiens, UniProt P34972).
T2 construct: expressed in transfected cells; host or cells: human embryonic kidney (HEK) cells, Semliki Forest Virus system, membrane preparations
Description: CB2 receptor affinity, [3H]-CP-55,940 displacement, HEK cell membranes. In kind it is binding. Particulars: 10 μM compound, radioligand [3H]-CP-55,940. In a few lines: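 Membranes from HEK cells transiently expressing human CB2 (Semliki Forest Virus) incubated with [3H]-CP-55,940 ± compound at 10 μM. Bound ligand separated by glass-fibre filtration and counted by scintillation; reported as % inhibition at 10 μM.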

The mark [1] stands for this setting: 10 μM compound, radioligand [3H]-CP-55,940.

Each structure is given as a SMILES string. Where two headings read alike, the source gives them in different places.

T1 sequence (P21554 whole entry): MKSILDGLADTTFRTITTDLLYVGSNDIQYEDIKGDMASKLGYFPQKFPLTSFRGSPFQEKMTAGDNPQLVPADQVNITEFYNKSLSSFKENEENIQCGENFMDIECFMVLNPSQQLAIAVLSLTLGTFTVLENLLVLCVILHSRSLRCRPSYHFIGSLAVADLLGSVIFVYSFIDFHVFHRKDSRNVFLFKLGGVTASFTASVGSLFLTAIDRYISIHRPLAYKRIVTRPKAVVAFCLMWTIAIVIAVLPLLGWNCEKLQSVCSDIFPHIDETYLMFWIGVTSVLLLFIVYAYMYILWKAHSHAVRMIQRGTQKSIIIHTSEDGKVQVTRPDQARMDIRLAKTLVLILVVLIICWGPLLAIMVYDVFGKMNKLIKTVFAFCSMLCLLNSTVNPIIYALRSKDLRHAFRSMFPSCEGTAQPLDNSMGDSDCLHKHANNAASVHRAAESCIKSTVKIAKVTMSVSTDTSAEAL
T2 sequence (P34972 whole entry): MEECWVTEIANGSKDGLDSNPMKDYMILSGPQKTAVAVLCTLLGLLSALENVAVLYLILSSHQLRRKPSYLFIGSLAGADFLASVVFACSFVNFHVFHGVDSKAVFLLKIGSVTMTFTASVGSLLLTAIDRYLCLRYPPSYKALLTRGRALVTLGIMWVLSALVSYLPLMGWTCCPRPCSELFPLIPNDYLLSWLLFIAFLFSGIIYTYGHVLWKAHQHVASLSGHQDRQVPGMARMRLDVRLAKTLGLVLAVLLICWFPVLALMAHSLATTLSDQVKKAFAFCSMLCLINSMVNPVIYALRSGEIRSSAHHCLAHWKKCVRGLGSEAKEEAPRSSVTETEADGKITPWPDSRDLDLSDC

`CCCn1ccc(CNC(=O)c2cc(-c3ccc(Cl)cc3)c(OCC(F)(F)F)cn2)n1` [Example 4, 4-(4-chloro-phenyl)-5-(2,2,2-trifluoro-ethoxy)-pyridine-2-carboxylic acid (1-propyl-1H-pyrazol-3-ylmethyl)-amide]: the inhibition at 10 µM is 26% on human CB1 receptor (setting [1]) and 33% at human CB2 receptor. Moreover, the EC50 in the assay on ABCA1 protein was found to be 2800 nM.

For `COc1cc(CNC(=O)c2cnc(O[C@@H](C)C(F)(F)F)c(-c3ccc(Cl)cc3)c2)on1` [Example 34, (S)-5-(4-chlorophenyl)-N-((3-methoxyisoxazol-5-yl)methyl)-6-(1,1,1-trifluoropropan-2-yloxy)nicotinamide], the inhibition at 10 µM on human CB1 receptor (setting [1]) came out at 33%; at human CB2 receptor it was 14%. Besides, the EC50 in the assay on ABCA1 protein is 770 nM.

In the case of `CC(C)c1nc(CNC(=O)c2cc(-c3ccc(Cl)cc3)c(OCC(F)(F)F)cn2)cs1` [Example 6, 4-(4-chloro-phenyl)-5-(2,2,2-trifluoro-ethoxy)-pyridine-2-carboxylic acid (2-isopropyl-thiazol-4-ylmethyl)-amide], the inhibition at 10 µM on human CB1 receptor (setting [1]) was determined as 5%; at human CB2 receptor, 15%. In addition, the EC50 with ABCA1 protein worked out at 7800 nM.

In the case of `O=C(NCc1cc(C(F)(F)F)no1)c1ncc(OCC(F)(F)F)c(-c2ccc(Cl)cc2)n1` [Example 61, 4-(4-chloro-phenyl)-5-(2,2,2-trifluoro-ethoxy)-pyrimidine-2-carboxylic acid (3-trifluoromethyl-isoxazol-5-ylmethyl)-amide], the inhibition at 10 µM was found to be 32% on human CB1 receptor (setting [1]) and 17% at human CB2 receptor. Moreover, the EC50 with ABCA1 protein came out at 820 nM.

As for `CCCn1ccc(CNC(=O)c2cnc(OCC(F)(F)F)c(-c3ccc(Cl)cc3)c2)n1` [Example 14, 5-(4-chloro-phenyl)-N-(1-propyl-1H-pyrazol-3-ylmethyl)-6-(2,2,2-trifluoro-ethoxy)-nicotinamide], the inhibition at 10 µM at human CB1 receptor (setting [1]) was 48%; on human CB2 receptor it was 12%. Further, the EC50 in the assay on ABCA1 protein came out at 950 nM.

For the compound `O=C(NCc1nc(C(F)(F)F)no1)c1cnc(OCC(F)(F)F)c(-c2ccc(F)c(Cl)c2)c1` [Example 81, 5-(3-chloro-4-fluorophenyl)-6-(2,2,2-trifluoroethoxy)-N-((3-(trifluoromethyl)-1,2,4-oxadiazol-5-yl)methyl)nicotinamide], the results for the inhibition at 10 µM at human CB1 receptor (setting [1]) and on human CB2 receptor were 4% and 7%, respectively. Also, the EC50 with ABCA1 protein was 890 nM.

As for `O=C(NCc1nc(C(F)(F)F)no1)c1cnc(OC2CCC2)c(-c2ccc(F)c(F)c2)c1` [Example 91, 6-cyclobutoxy-5-(3,4-difluorophenyl)-N-((3-(trifluoromethyl)-1,2,4-oxadiazol-5-yl)methyl)nicotinamide], the figures for the inhibition at 10 µM on human CB1 receptor (setting [1]) and at human CB2 receptor were 23% and 12%, respectively. For the same compound, the EC50 in the assay on ABCA1 protein amounted to 620 nM.

With `CC(C)c1cc(CNC(=O)c2cc(-c3ccc(Cl)cc3)c(OCC(F)(F)F)cn2)on1` [Example 2, 4-(4-chloro-phenyl)-5-(2,2,2-trifluoro-ethoxy)-pyridine-2-carboxylic acid (3-isopropyl-isoxazol-5-ylmethyl)-amide], the inhibition at 10 µM turned out to be 30% on human CB1 receptor (setting [1]) and 14% on human CB2 receptor. Further, in the assay on ABCA1 protein, the 50% effective concentration (EC50) was 1090 nM.

As to `COc1cc(CNC(=O)c2cc(-c3ccc(Cl)c(C)c3)c(OCC(F)(F)F)cn2)on1` [Example 74, 4-(4-chloro-3-methylphenyl)-N-((3-methoxyisoxazol-5-yl)methyl)-5-(2,2,2-trifluoroethoxy)picolinamide], the inhibition at 10 µM amounted to 11% on human CB1 receptor and 22% at human CB2 receptor. In the assay with ABCA1 protein, the concentration for a half-maximal effect (EC50) was found to be 1300 nM.

Regarding `O=C(NCc1cc(C(F)(F)F)no1)c1cc(-c2ccc(Cl)cc2)c(OCC(F)(F)F)nn1` [Example 60, 5-(4-chloro-phenyl)-6-(2,2,2-trifluoro-ethoxy)-pyridazine-3-carboxylic acid (3-trifluoromethyl-isoxazol-5-ylmethyl)-amide], the inhibition at 10 µM is 30% at human CB1 receptor (setting [1]) and -3% on human CB2 receptor. Further, the half-maximal effective concentration (EC50) with ABCA1 protein was 750 nM.

For the compound `CC(C)c1cc(CNC(=O)c2cc(-c3ccc(Cl)cc3)c(OCC(F)(F)F)cn2)no1` [Example 27, 4-(4-chlorophenyl)-N-((5-isopropylisoxazol-3-yl)methyl)-5-(2,2,2-trifluoroethoxy)picolinamide], the inhibition at 10 µM at human CB1 receptor (setting [1]) worked out at 40%; on human CB2 receptor, 24%. Further, in the assay with ABCA1 protein, the concentration giving a half-maximal response (EC50) was determined as 970 nM.

For `Cc1cc(-c2cc(C(=O)NCc3csc(C4CC4)n3)cnc2OCC(F)(F)F)ccc1Cl` [Example 71, 5-(4-chloro-3-methylphenyl)-N-((2-cyclopropylthiazol-4-yl)methyl)-6-(2,2,2-trifluoroethoxy)nicotinamide], the inhibition at 10 µM at human CB1 receptor (setting [1]) was 2%; at human CB2 receptor it was -7%. For the same compound, the EC50 in the assay on ABCA1 protein was found to be 4290 nM.

With `Cc1cc(-c2cc(C(=O)NCc3nc(C(F)(F)F)no3)cnc2OC2CCC2)ccc1Cl` [Example 94, 5-(4-chloro-3-methylphenyl)-6-cyclobutoxy-N-((3-(trifluoromethyl)-1,2,4-oxadiazol-5-yl)methyl)nicotinamide], the inhibition at 10 µM turned out to be 19% at human CB1 receptor (setting [1]) and 2% on human CB2 receptor. Moreover, the EC50 with ABCA1 protein was 310 nM.

With `Cc1ccc(-c2cc(C(=O)NCc3nc(C(F)(F)F)no3)cnc2OCC(F)(F)F)cc1Cl` [Example 80, 5-(3-chloro-4-methylphenyl)-6-(2,2,2-trifluoroethoxy)-N-((3-(trifluoromethyl)-1,2,4-oxadiazol-5-yl)methyl)nicotinamide], the values for the inhibition at 10 µM on human CB1 receptor (setting [1]) and on human CB2 receptor were 15% and -4%, respectively. Moreover, the EC50 with ABCA1 protein was 3130 nM.

Regarding `CC(C)c1cc(CNC(=O)c2cc(-c3ccc(Cl)cc3)c(OCC(F)(F)F)nn2)no1` [Example 42, 5-(4-chloro-phenyl)-6-(2,2,2-trifluoro-ethoxy)-pyridazine-3-carboxylic acid (5-isopropyl-isoxazol-3-ylmethyl)-amide], the inhibition at 10 µM at human CB1 receptor (setting [1]) was 34%; at human CB2 receptor, 13%. The EC50 in the assay with ABCA1 protein was determined as 800 nM.

`COc1cc(CNC(=O)c2cc(-c3ccc(Cl)cc3)c(OCC(F)(F)F)cn2)on1` [Example 1, 4-(4-chloro-phenyl)-5-(2,2,2-trifluoro-ethoxy)-pyridine-2-carboxylic acid (3-methoxy-isoxazol-5-ylmethyl)-amide]: the inhibition at 10 µM at human CB1 receptor (setting [1]) turned out to be 32%; on human CB2 receptor, 28%. The EC50 with ABCA1 protein was determined as 2010 nM.

`O=C(NCc1nc(C(F)(F)F)no1)c1ccc(OCC(F)(F)F)c(-c2ccc(Cl)cc2)n1` [Example 22, 6-(4-chloro-phenyl)-5-(2,2,2-trifluoro-ethoxy)-pyridine-2-carboxylic acid (3-trifluoromethyl-[1,2,4]oxadiazol-5-ylmethyl)-amide]: the inhibition at 10 µM at human CB1 receptor (setting [1]) was found to be 40%; at human CB2 receptor, 6%. The EC50 in the assay on ABCA1 protein is 2270 nM.

Regarding `CCc1cc(CNC(=O)c2cc(-c3ccc(Cl)cc3)c(OCC(F)(F)F)cn2)on1` [Example 3, 4-(4-chloro-phenyl)-5-(2,2,2-trifluoro-ethoxy)-pyridine-2-carboxylic acid (3-ethyl-isoxazol-5-ylmethyl)-amide], the inhibition at 10 µM came to 38% on human CB1 receptor and 18% at human CB2 receptor. The EC50 in the assay with ABCA1 protein was found to be 1240 nM.

On to `COc1cc(CNC(=O)c2cc(-c3ccc(Cl)cc3)c(OCC(F)(F)F)nn2)on1` [Example 23, 5-(4-chlorophenyl)-N-((3-methoxyisoxazol-5-yl)methyl)-6-(2,2,2-trifluoroethoxy)pyridazine-3-carboxamide], for which the inhibition at 10 µM at human CB1 receptor (setting [1]) was determined as 18%; on human CB2 receptor it was 7%. For the same compound, in the assay with ABCA1 protein, the concentration giving a half-maximal response (EC50) amounted to 930 nM.
